# Laboratory results published in patent US8852657B2, “Chromones as therapeutic agents” (Unigen, Inc., priority 2007, dated 2014).
# Entries after “also recorded” stand apart in the source; their conditions may differ.
# How the values were obtained:
# [1] = test system: diabetic animal models; details: administered orally; Brown et al. (1999), Way et al. (2001); cited from earlier work
# [2] = test system: high fat diet induced C57BL/6J mice; assay: Intraperitoneal glucose tolerance test, UP780 dose-range study; assay type: in vivo, mouse; details: week 3 of daily oral treatment; 30, 60 and 90 minutes; UP780 200 mg/kg, GW1929 5 mg/kg
# Procedure: Once an induction of the disease on animals after 8 weeks of high fat diets was confirmed by monitoring of selected parameters, daily oral treatment was initiated. On each day, the test articles and the positive control GW1929 (Tocris Bioscience, Ellisville, Mo., Batch #2A/58705) were dissolved in 0.5% methylcellulose (Sigma, St. Louise Mo., Lot#116H0857) and delivered at an oral dose of 100, 200 and 400 mg/kg of UP780 (Lot # L1806QMAW-01); 400 mg/kg of Qmatrix® Aloe vera gel powder (QM400, Lot# G6319103-L3) as well as 5 mg/kg of GW1929. As GW1929 was not completely solublized in methylcellulose, it was first dissolved in DMSO (Sigma, St. Louis, Mo., Batch#064K0067). The final concentration of test compounds, including the vehicle, was then adjusted to contain 5% DMSO before drug administration. The carrier vehicle treated animals received 0.5% methylcellulose only. No detectable sign of irritation was observed after each drug or vehicle administration. […]
# An intraperitoneal glucose tolerance test was conducted on day 0 (baseline), weeks 3, and 9 after onset of treatment. […] Blood glucose levels were determined at time 0 (before glucose injection), 30, 60, 90, and 120 minutes post glucose delivery. […] Blood glucose levels were determined at time 0 (before insulin injection), 30, 60, 90, and 120 minutes after insulin administration. […]
# [3] = test system: high fat diet induced C57BL/6J mice; assay: Fasting triglyceride, UP780 dose-range study; assay type: in vivo, mouse; details: after 7 weeks of daily oral treatment; GW1929 5 mg/kg
# Procedure: (§1) Once an induction of the disease on animals after 8 weeks of high fat diets was confirmed by monitoring of selected parameters, daily oral treatment was initiated. On each day, the test articles and the positive control GW1929 (Tocris Bioscience, Ellisville, Mo., Batch #2A/58705) were dissolved in 0.5% methylcellulose (Sigma, St. Louise Mo., Lot#116H0857) and delivered at an oral dose of 100, 200 and 400 mg/kg of UP780 (Lot # L1806QMAW-01); 400 mg/kg of Qmatrix® Aloe vera gel powder (QM400, Lot# G6319103-L3) as well as 5 mg/kg of GW1929. As GW1929 was not completely solublized in methylcellulose, it was first dissolved in DMSO (Sigma, St. Louis, Mo., Batch#064K0067). The final concentration of test compounds, including the vehicle, was then adjusted to contain 5% DMSO before drug administration. The carrier vehicle treated animals received 0.5% methylcellulose only. No detectable sign of irritation was observed after each drug or vehicle administration.
# (§2) As described on Example 12, male C57BL/6J mice were purchased from Jackson Laboratories (Bar Harbor, Me.) at 6 weeks of age. […]
# (§3) Fasting blood glucose, total cholesterol and triglyceride levels were measured using 15-20 μl of blood obtained from tail vein. […]
# [4] = test system: db/db mice; assay: Weekly fasting glucose levels in db/db mice; assay type: in vivo, mouse; details: GW1929 5 mg/kg, N931 375 mg/kg
# Procedure: Fasting glucose levels of male db/db mice (8 mice in each group) treated with GW1929 (5 mg/kg), N931 (375 mg/kg) and vehicle were measured weekly. Animals were provided with T2018 rodent diet ad libitum except when fasting. Animals were fasted overnight before measurements were taken.
# [5] = Body weight, UP780 dose-range study; assay type: in vivo, mouse; details: GW1929 5 mg/kg, Qmatrix 400 mg/kg, UP780 100, 200 and 400 mg/kg; weekly
# Procedure: as §1, §2
# (§4) Three or four male C57BL/6J mice were housed in a mouse cage that had sections for feed and water. Feed intake was determined daily by measuring the difference between previously weighed high fat pellets value and what was left on the given day. […]
# [6] = test system: high fat diet induced C57BL/6J mice; assay: Fasting blood glucose, UP780 dose-range study; assay type: in vivo, mouse; details: weeks 5 and 7; UP780 200 mg/kg, GW1929 5 mg/kg
# Procedure: as §1, §2, §3
# [7] = Feed consumption, UP780 dose-range study; assay type: in vivo, mouse; details: GW1929 5 mg/kg, Qmatrix 400 mg/kg, UP780 100, 200 and 400 mg/kg
# Procedure: as §1, §2, §4
structure (smiles),measurement,setting,value
"CN(CCOc1ccc(C[C@H](Nc2ccccc2C(=O)c2ccccc2)C(=O)O)cc1)c1ccccn1 [GW1929, N-(2-Benzoylphenyl)-O-[2-(methyl-2-pyridinylamino)ethyl]-L-tyrosine]","glucose, fatty acids and triglyceride levels",[1],"decreases glucose, fatty acids and triglyceride levels"
same,glucose clearance in intraperitoneal glucose tolerance test vs vehicle,[2],statistically significant glucose clearance
same,percent reduction of fasting triglyceride level to vehicle,[3],22.7%
same,course of fasting glucose level during 10-week treatment,[4]; starting from week 5,maintain the glucose levels at the baseline level
same,fasting blood glucose levels compared to vehicle,"[4]; weeks 6, 7, 9 and 10, P<0.05",significantly lower
same,body weight gain difference between groups,[5],no significant body weight gain or feed consumption differences; also recorded: No statistically significant body weight gain difference
same,fasting glucose level compared to vehicle,[6],statistically significant lower fasting glucose level
same,feed consumption difference between groups,[7],no significant body weight gain or feed consumption differences
